The nature of the data set: HILIC, Waters ACQUITY UPLC BEH Amide, 100 × 2.1 mm, 1.7 µm; A: water + 0.125% formic acid + 10 mM ammonium formate; B: 5% water + 95% acetonitrile + 0.125% formic acid + 10 mM ammonium formate; gradient (min/%B) 0/100 2/100 7.7/70 9.5/40 10.25/30 12.75/100 17/100. As to conditions: stereoisomer not certain.
Consider `CC(=O)NCCCCC(N)C(=O)O` (stereo not given) [N-epsilon-Acetyllysine], for which the LC retention time is 8.03 min.
`COc1ccc(NC=O)c(C(=O)CCNC(C)=O)c1` [N-gamma-Acetyl-N-2-formyl-5-methoxykynurenamine]: the LC retention time worked out at 1.32 min.
The figure for `CC(=O)NCCc1cnc[nH]1` [N-omega-Acetylhistamine] is 6 min; for `CC(=O)N[C@@H](CCCCN)C(=O)O` [N.alpha.-Acetyl-L-lysine] it is 8.15 min.
The figure for `CN[C@@H](CCCCN)C(=O)O` [N.alpha.-Methyl-L-lysine] is 7.35 min; for `C[N+](C)(C)CCCCC(N)C(=O)[O-]` (stereo not given) [NEPSILON,NEPSILON,NEPSILON-TRIMETHYLLYSINE] it is 9.29 min.
The figure for `CCCCN1CCCC1CNC(=O)c1cc(C#N)c2ccccc2c1OC` (stereo not given) [Nafadotride] is 2.05 min; for `COc1ccccc1N1CCN(CC(O)COc2cccc3ccccc23)CC1` (stereo not given) [Naftopidil] it is 1.99 min; for `Oc1ccc2c3c1OC1C(O)CCC4(O)C(C2)N(CC2CCC2)CCC314` (stereo not given) [Nalbuphine] it is 5.25 min.
Regarding `Oc1ccc2c3c1OC1c4[nH]c5ccccc5c4CC4(O)C(C2)N(CC2CC2)CCC314` (stereo not given) [Naltrindole], the LC retention time was determined as 4.45 min.
The result for `CC12CCC3C4CCC(=O)C=C4CCC3C1CCC2O` (stereo not given) [Nandrolone] reads 1.06 min; that for `CC1OC(OC2C(Oc3cc(O)c4c(c3)OC(c3ccc(O)cc3)CC4=O)OC(CO)C(O)C2O)C(O)C(O)C1O` (stereo not given) [Naringin], 5.61 min.
With `CC(C)C1CCC(C(=O)NC(Cc2ccccc2)C(=O)O)CC1` (stereo not given) [Nateglinide], the LC retention time was found to be 1.3 min.
The result for `CCc1nn(CCCN2CCN(c3cccc(Cl)c3)CC2)c(=O)n1CCOc1ccccc1` [Nefazodone] reads 1.88 min; that for `Cc1c(O)cccc1C(=O)NC(CSc1ccccc1)C(O)CN1CC2CCCCC2CC1C(=O)NC(C)(C)C` (stereo not given) [Nelfinavir], 1.55 min; that for `CC(=O)OCC=C(C)CCC=C(C)C` [Nerylacetate], 0.99 min.
The result for `O=C(CCNNC(=O)c1ccncc1)NCc1ccccc1` [Nialamide] reads 1.69 min; that for `O=C(NCCO[N+](=O)[O-])c1cccnc1` [Nicorandil], 1.11 min; that for `NC(=O)c1ccc[n+](C2OC(CO)C(O)C2O)c1` (stereo not given) [Nicotinamide riboside cation], 7.51 min.
The figure for `NC(=O)c1cccnc1` [Nicotinamide] is 1.7 min; for `CN1CCCC1c1cccnc1` (stereo not given) [Nicotine] it is 5.34 min; for `O=C(O)c1cccnc1` [Nicotinic acid] it is 4.01 min.
In the case of `O=C(O)CNC(=O)c1cccnc1` [Nicotinoylglycine], the LC retention time is 7.08 min.
The result for `COC(=O)C1=C(C)NC(C)=C(C(=O)OC)C1c1ccccc1[N+](=O)[O-]` [Nifedipine] reads 1.02 min; that for `Cn1c(NCCN(CCO)CCCc2ccc([N+](=O)[O-])cc2)cc(=O)n(C)c1=O` [Nifekalant], 3.21 min.
As for `CN1C(=O)CN=C(c2ccccc2)c2cc([N+](=O)[O-])ccc21` [Nimetazepam], the LC retention time came out at 0.98 min.
`COCCOC(=O)C1=C(C)NC(C)=C(C(=O)OC(C)C)C1c1cccc([N+](=O)[O-])c1` (stereo not given) [Nimodipine]: the LC retention time was 0.94 min.
The figure for `CC(=O)Oc1ccccc1C(=O)Nc1ncc([N+](=O)[O-])s1` [Nitazoxanide] is 1 min; for `O=C1CN=C(c2ccccc2)c2cc([N+](=O)[O-])ccc2N1` [Nitrazepam] it is 1.2 min; for `CCOC(=O)C1=C(C)NC(C)=C(C(=O)OC)C1c1cccc([N+](=O)[O-])c1` (stereo not given) [Nitrendipine] it is 0.95 min.
The figure for `CNC(=C[N+](=O)[O-])NCCSCc1csc(CN(C)C)n1` [Nizatidine] is 4.65 min.
The result for `COc1ccc(-c2cc(=O)c3c(OC)c(OC)c(OC)c(OC)c3o2)cc1OC` [Nobiletin] reads 1 min; that for `CCCCC(N)C(=O)O` (stereo not given) [Norleucine], 6.99 min.
On to `c1cncc(C2CCCN2)c1` (stereo not given) [Nornicotine], for which the LC retention time was found to be 5.98 min.
The figure for `CCCC(N)C(=O)O` (stereo not given) [Norvaline] is 4.89 min; for `COc1ccc2c(c1OC)C(=O)OC2C1c2c(cc3c(c2OC)OCO3)CCN1C` (stereo not given) [Noscapine] it is 1.31 min.
Take `CC(=O)OCC[C@H](N)C(=O)O` [O-Acetyl-L-homoserine]: the LC retention time was found to be 7.6 min.
The result for `CC(=O)OCC(N)C(=O)O` (stereo not given) [O-Acetylserine] reads 7.67 min.
The figure for `NCCOP(=O)(O)O` [O-Phosphocolamine] is 9.23 min.
The result for `NC(COP(=O)(O)O)C(=O)O` (stereo not given) [O-Phosphoserine] reads 9.85 min; that for `NC(CCOC(=O)CCC(=O)O)C(=O)O` (stereo not given) [O-Succinylhomoserine], 8.06 min.
Take `O=C(O)CCCCCCCCCCCCCCCCC(=O)O` [Octadecanedioic acid]: the LC retention time was found to be 1.24 min.
Consider `CCCCCCCC=O` [Octanal], for which the LC retention time amounted to 6.98 min.
The figure for `CCCCCCCCO` [Octanol] is 8.47 min; for `CC(NC(CCCN=C(N)N)C(=O)O)C(=O)O` (stereo not given) [Octopine] it is 10.3 min; for `Cc1cc2c(s1)Nc1ccccc1N=C2N1CCN(C)CC1` [Olanzapine] it is 4.56 min.
The result for `CCCc1nc(C(C)(C)O)c(C(=O)O)n1Cc1ccc(-c2ccccc2-c2nn[nH]n2)cc1` [Olmesartan] reads 4.76 min; that for `CN(C)CCC=C1c2ccccc2COc2ccc(CC(=O)O)cc21` [Olopatadine], 4.41 min; that for `Cc1nccn1CC1CCc2c(c3ccccc3n2C)C1=O` (stereo not given) [Ondansetron], 2.83 min.
The figure for `CCCCCCCCCCCC(CC1OC(=O)C1CCCCCC)OC(=O)C(CC(C)C)NC=O` (stereo not given) [Orlistat] is 0.89 min; for `COc1cc(C)c(Cc2cnc(N)nc2N)cc1OC` [Ormetroprim] it is 4.19 min.
Regarding `Cc1ncc([N+](=O)[O-])n1CC(O)CCl` (stereo not given) [Ornidazole], the LC retention time is 1.08 min.
The figure for `NCCCC(N)C(=O)O` (stereo not given) [Ornithine] is 9.6 min.
The figure for `Nc1ccccc1S(=O)(=O)O` [Orthanilic acid] is 2.52 min; for `CCN(CC)CC1CCCCN1CC(=O)N1c2ccccc2C(=O)Nc2cccnc21` (stereo not given) [Otenzepad] it is 2.94 min; for `O=C(O)CCc1nc(-c2ccccc2)c(-c2ccccc2)o1` [Oxaprozin] it is 1.11 min.
Consider `O=C1Nc2ccc(Cl)cc2C(c2ccccc2)=NC1O` (stereo not given) [Oxazepam], for which the LC retention time is 1.37 min.
The result for `Clc1ccc(CON=C(Cn2ccnc2)c2ccc(Cl)cc2Cl)c(Cl)c1` [Oxiconazole] reads 1.08 min; that for `COc1ccc2c3c1OC1C(=O)CCC4(O)C(C2)N(C)CCC314` (stereo not given) [Oxycodone], 4.58 min; that for `CN1CCC23c4c5ccc(O)c4OC2C(=O)CCC3(O)C1C5` (stereo not given) [Oxymorphone], 5.5 min.
The result for `CC[N+](C)(CC)CCOC(=O)C(O)(c1ccccc1)C1CCCCC1` (stereo not given) [Oxyphenonium] reads 2.01 min; that for `O=C(O)C=Cc1ccc(Cn2ccnc2)cc1` [Ozagrel], 2.99 min; that for `COc1ccc(C(=O)O)cc1` [P-Anisic acid], 1.3 min.
The figure for `CCCCCCCCCCCCCCCC(=O)OC(CC(=O)[O-])C[N+](C)(C)C` (stereo not given) [Palmitoylcarnitine cation] is 3.23 min; for `O=C1c2cccc3c2C(CCC3)CN1C1CN2CCC1CC2` (stereo not given) [Palonosetron] it is 4.05 min; for `CC(C)(CO)C(O)C(=O)NCCCO` (stereo not given) [Panthenol] it is 1.9 min.
For `COc1ccnc(CS(=O)c2nc3ccc(OC(F)F)cc3[nH]2)c1OC` (stereo not given) [Pantoprazole], the LC retention time was 1.21 min.
For `CC(C)(CO)C(O)C(=O)NCCC(=O)O` (stereo not given) [Pantothenic acid], the LC retention time amounted to 3.5 min.
The figure for `COc1ccc(Cc2nccc3cc(OC)c(OC)cc23)cc1OC` [Papaverine] is 1.54 min; for `CCOP(=O)(OCC)Oc1ccc([N+](=O)[O-])cc1` [Paraoxon] it is 1.02 min; for `CCC(=O)NS(=O)(=O)c1ccc(-c2c(-c3ccccc3)noc2C)cc1` [Parecoxib] it is 0.98 min.
Consider `Fc1ccc(C2CCNCC2COc2ccc3c(c2)OCO3)cc1` (stereo not given) [Paroxetine], for which the LC retention time is 3.08 min.
The result for `CC1COc2c(C3(N)CC3)c(F)cc3c(=O)c(C(=O)O)cn1c23` (stereo not given) [Pazufloxacin] reads 2.49 min; that for `CCn1cc(C(=O)O)c(=O)c2cc(F)c(N3CCN(C)CC3)cc21` [Pefloxacin], 3.65 min.
The figure for `N=C1NC(=O)C(c2ccccc2)O1` (stereo not given) [Pemoline] is 1.39 min; for `Nc1nc2c(ncn2CCC(CO)CO)c(=O)[nH]1` [Penciclovir] it is 6.71 min; for `CC(C)=CCN1CCC2(C)c3cc(O)ccc3CC1C2C` (stereo not given) [Pentazocine] it is 2.65 min.
The figure for `CC(=O)CCCCn1c(=O)c2c(ncn2C)n(C)c1=O` [Pentoxifylline] is 1.09 min; for `CCCN1CC(CSC)CC2c3cccc4[nH]cc(c34)CC21` (stereo not given) [Pergolide] it is 2.41 min.
For the compound `O=C1C2CCCCC2C(=O)N1CCCCN1CCN(c2nsc3ccccc23)CC1` (stereo not given) [Perospirone], the LC retention time was determined as 2.14 min.

Values taken from the RepoRT retention time repository.
